We go through 17 compounds from US20230414617A1, “PHARMACEUTICAL COMPOSITION COMPRISING ACID-BASE NEUTRALIZATION COMBINATION AND APPLICATION THEREOF” (CHENGDU KUACHANGAOPU MEDICAL TECHNOLOGY CO., LTD., priority 2020, published 2023).

System in the first data set: not listed separately
Briefly: pH of the study drug aqueous solution. The class given is physicochemical. Particulars: study drugs of Example 3 (Table 5), aqueous solution.
As for `O=C([O-])O.[Na+]` [10% sodium bicarbonate, sodium bicarbonate], the pH came to 8.1.

The compound `O=C([O-])O.[Na+]` [4% sodium bicarbonate, sodium bicarbonate] registered a pH of 8.2.

With `[Na+].[OH-]` [5% NaOH, sodium hydroxide], the pH worked out at 14.0.

Compound `[Na+].[OH-]` [1% NaOH, sodium hydroxide] showed a pH of 13.4.

Still in this data set, the particulars now being: study drugs of Example 4 (Table 6), aqueous solution.
Take `O=C([O-])O.[Na+]` [10% sodium bicarbonate, sodium bicarbonate]: the pH stood at 8.1.

Regarding `O=C([O-])O.[Na+]` [2% sodium bicarbonate, sodium bicarbonate], the pH is 8.2.

Turning to `O=C([O-])[O-].[Na+].[Na+]` [2.8% sodium carbonate, sodium carbonate], the pH turned out to be 10.9.

Compound `O=C([O-])[O-].[Na+].[Na+]` [7% sodium carbonate, sodium carbonate] yielded a pH of 10.8.

`O=C([O-])[O-].[Na+].[Na+]` [14% sodium carbonate, sodium carbonate] had a pH of 10.8.

Still in this data set, the particulars now being: study drugs of Example 5 (Table 7), aqueous solution.
Compound `O=C([O-])O.[Na+]` [4% sodium bicarbonate, sodium bicarbonate] showed a pH of 8.2.

In turn, `CC(=O)O` [30% acetic acid, acetic acid] returned a pH of 2.5.

In turn, `NCC(=O)O` [15% glycine, glycine] displayed a pH of 6.8.

With `CC(=O)O` [3% acetic acid, acetic acid], the pH is listed as 2.6.

`CC(=O)[O-].[Na+]` [30% sodium acetate, sodium acetate] gave a pH of 9.4.

Consider `CC(=O)[O-].[Na+]` [10% sodium acetate, sodium acetate], for which the pH worked out at 9.3.

The compound `CC(=O)O` [15% acetic acid, acetic acid] registered a pH of 2.5.

Still in this data set, the particulars now being: study drugs of Example 7 (Table 9), aqueous solution.
On to `NCC(=O)O` [15% glycine, glycine], for which the pH amounted to 6.8.

Another data set concerns breast cancer 4T1 cells. Description: Tumor inhibition, breast cancer 4T1 transplantation tumor (Example 3). The class given is in vivo, BALB/c mouse. Particulars: intratumoral, 150 μl/mouse, once every 3 days x3, 5th day after end. The method, then: (§1) In the following examples of the present invention, the co-administration pharmaceutical efficacies of drug A and drug B combination administration was determined by ratio q of actual pharmaceutical efficacy/expected pharmaceutical efficacy according to Zhengjun JIN method, as follows.
In an experiment, the test animal was a BALB/c mouse, the modeling cells were breast cancer 4T1 cells, and the transplantation tumor was modeled at 1×10^6 cells/mouse under the skin of the animal's right axilla. […] Each group was administered by intratumoral injection once every 3 days for a total of 3 times, each time at an injection dose of 150 μl/mouse. On the 5th day after the administration was ended, the animals were euthanized, and the tumor weight was determined after anatomy to the animals. The tumor inhibition rate was calculated from the negative control group.
`O=C([O-])O.[Na+]` [10% sodium bicarbonate, sodium bicarbonate]: the “Tumor weight (x ± s)” value is on record as 1.65 ± 0.29 g.

As to `O=C([O-])O.[Na+]` [4% sodium bicarbonate, sodium bicarbonate], the “Tumor weight (x ± s)” value was 1.87 ± 0.22 g.

Take `[Na+].[OH-]` [5% NaOH, sodium hydroxide]: the “Tumor weight (x ± s)” value turned out to be 0.28 ± 0.12 g.

With `[Na+].[OH-]` [1% NaOH, sodium hydroxide], the “Tumor weight (x ± s)” value is 1.41 ± 0.23 g.

On to `[Cl-].[K+]` [2% KCl, potassium chloride], for which the “Tumor weight (x ± s)” value was determined as 2.19 ± 0.31 g.

The data set is the same for the next values; noted with them: intratumoral; vs negative control.
Regarding `O=C([O-])O.[Na+]` [10% sodium bicarbonate, sodium bicarbonate], the Tumor inhibition rate is 32%.

On to `O=C([O-])O.[Na+]` [4% sodium bicarbonate, sodium bicarbonate], for which the Tumor inhibition rate is 23%.

Consider `[Na+].[OH-]` [5% NaOH, sodium hydroxide], for which the Tumor inhibition rate was 72%.

Consider `[Na+].[OH-]` [1% NaOH, sodium hydroxide], for which the Tumor inhibition rate worked out at 42%.

As to `[Cl-].[K+]` [2% KCl, potassium chloride], the Tumor inhibition rate was 11%.

In another data set the test system is breast cancer 4T1 cells. Briefly: Tumor inhibition, breast cancer 4T1 transplantation tumor (Example 4). Type of data set: in vivo, BALB/c mice. Particulars: intratumoral, 150 μl/mouse, once every 3 days x3, 5th day after end. The method, then: as §1
In another experiment, the test animal was BALB/c mice, the modeling cells were breast cancer 4T1 cells, and the transplantation tumor was modeled at 1×10^6 cells/mouse under the skin of the animal's right axilla. Successfully modeled experimental animals (average tumor volume 307 mm^3) were randomly divided into 1 negative control group (group 0) and 13 drug study groups (groups 1-13). […] Each group was administered by intratumoral injection once every 3 days for a total of 3 times, each time at an injection dose of 150 μl/mouse. On the 5th day after the administration was ended, the animals were euthanized, and the tumor weight was measured after anatomy to the animals. The tumor inhibition rate was calculated from the negative control group.
Turning to `O=C([O-])O.[Na+]` [10% sodium bicarbonate, sodium bicarbonate], the “Tumor weight (x ± s)” value amounted to 1.58 ± 0.22 g.

As to `O=C([O-])O.[Na+]` [2% sodium bicarbonate, sodium bicarbonate], the “Tumor weight (x ± s)” value is on record as 2.10 ± 0.25 g.

`O=C([O-])[O-].[Na+].[Na+]` [2.8% sodium carbonate, sodium carbonate]: the “Tumor weight (x ± s)” value amounted to 2.10 ± 0.27 g.

With `O=C([O-])[O-].[Na+].[Na+]` [7% sodium carbonate, sodium carbonate], the “Tumor weight (x ± s)” value is given as 1.81 ± 0.21 g.

Regarding `O=C([O-])[O-].[Na+].[Na+]` [14% sodium carbonate, sodium carbonate], the “Tumor weight (x ± s)” value was determined as 1.47 ± 0.24 g.

The data set is the same for the next values; noted with them: intratumoral; vs negative control.
For `O=C([O-])O.[Na+]` [10% sodium bicarbonate, sodium bicarbonate], the Tumor inhibition rate was 30%.

`O=C([O-])O.[Na+]` [2% sodium bicarbonate, sodium bicarbonate]: the Tumor inhibition rate is recorded as 7%.

For `O=C([O-])[O-].[Na+].[Na+]` [2.8% sodium carbonate, sodium carbonate], the Tumor inhibition rate turned out to be 7%.

On to `O=C([O-])[O-].[Na+].[Na+]` [7% sodium carbonate, sodium carbonate], for which the Tumor inhibition rate is 20%.

For the compound `O=C([O-])[O-].[Na+].[Na+]` [14% sodium carbonate, sodium carbonate], the Tumor inhibition rate amounted to 35%.

The subject of another data set is breast cancer 4T1 cells. Description: Tumor inhibition, breast cancer 4T1 transplantation tumor (Example 5). Particulars: intratumoral, once every 3 days x3, 5th day after end. Type of data set: in vivo, BALB/c mouse. Here is the method: as §1
In one experiment, the test animal was a BALB/c mouse, the modeling cells were breast cancer 4T1 cells, and the transplantation tumor was modeled at 1×10^6 cells/mouse under the skin of the animal's right axilla. […] Each group was administered by intratumoral injection once every 3 days for a total of 3 times, each time at an injection dose of […]. On the 5th day after the administration was ended, the animals were euthanized, and the tumor weight was measured after anatomy to the animals. The tumor inhibition rate was calculated from the negative control group.
Regarding `O=C([O-])O.[Na+]` [4% sodium bicarbonate, sodium bicarbonate], the “Tumor weight (x ± s)” value is 1.68 ± 0.27 g.

Regarding `CC(=O)O` [30% acetic acid, acetic acid], the “Tumor weight (x ± s)” value is on record as 0.41 ± 0.11 g.

Turning to `NCC(=O)O` [15% glycine, glycine], the “Tumor weight (x ± s)” value is 1.81 ± 0.26 g.

For `CC(=O)O` [3% acetic acid, acetic acid], the “Tumor weight (x ± s)” value was 1.85 ± 0.26 g.

Consider `CC(=O)[O-].[Na+]` [30% sodium acetate, sodium acetate], for which the “Tumor weight (x ± s)” value was found to be 1.53 ± 0.21 g.

Consider `CC(=O)[O-].[Na+]` [10% sodium acetate, sodium acetate], for which the “Tumor weight (x ± s)” value was determined as 1.72 ± 0.23 g.

As to `CC(=O)O` [15% acetic acid, acetic acid], the “Tumor weight (x ± s)” value was determined as 0.70 ± 0.18 g.

The data set is the same for the next values; noted with them: intratumoral; vs negative control.
For `O=C([O-])O.[Na+]` [4% sodium bicarbonate, sodium bicarbonate], the Tumor inhibition rate came out at 23%.

As for `CC(=O)O` [30% acetic acid, acetic acid], the Tumor inhibition rate turned out to be 81%.

Regarding `NCC(=O)O` [15% glycine, glycine], the Tumor inhibition rate came out at 17%.

Regarding `CC(=O)O` [3% acetic acid, acetic acid], the Tumor inhibition rate was 15%.

Turning to `CC(=O)[O-].[Na+]` [30% sodium acetate, sodium acetate], the Tumor inhibition rate is listed as 30%.

`CC(=O)[O-].[Na+]` [10% sodium acetate, sodium acetate]: the Tumor inhibition rate was 21%.

Take `CC(=O)O` [15% acetic acid, acetic acid]: the Tumor inhibition rate came out at 68%.

The subject of another data set is breast cancer 4T1 cells. Description: Tumor inhibition, breast cancer 4T1 transplantation tumor (Example 7). The class given is in vivo, BALB/c mouse. Particulars: intratumoral, 150 ul/mouse, once every 3 days x3, 5th day after end. Here is the method:
as §1
In an experiment, the test animal was a BALB/c mouse, the modeling cells were breast cancer 4T1 cells, and the transplantation tumor was modeled at 1×10^6 cells/mouse under the skin of the animal's right axilla. […] The negative controls and study drugs were administered intraperitoneally (groups 02, 11 and 15) and intratumorally (other study groups), respectively. All groups were dosed once every 3 days, for a total of 3 times, […], with an injection volume of 150 ul/mouse. On the 5th day after the administration was ended, the animals were euthanized, and the tumor weight was measured after anatomy to the animals. The tumor inhibition rate was calculated from the negative control group.
As to `CN(C)c1ccc2nc3ccc(=[N+](C)C)cc-3sc2c1` [0.3% methylene blue, methylene blue], the “Tumor weight (x ± s)” value turned out to be 2.11 ± 0.29 g.

Take `NCC(=O)O` [15% glycine, glycine]: the “Tumor weight (x ± s)” value was 1.81 ± 0.26 g.

`O=c1[nH]cc(F)c(=O)[nH]1` [0.25% 5-fluorouracil, 5-fluorouracil]: the “Tumor weight (x ± s)” value was found to be 1.94 ± 0.33 g.

The data set is the same for the next values; noted with them: intratumoral; vs negative control.
For `CN(C)c1ccc2nc3ccc(=[N+](C)C)cc-3sc2c1` [0.3% methylene blue, methylene blue], the Tumor inhibition rate stood at 3%.

In the case of `NCC(=O)O` [15% glycine, glycine], the Tumor inhibition rate turned out to be 17%.

In the case of `O=c1[nH]cc(F)c(=O)[nH]1` [0.25% 5-fluorouracil, 5-fluorouracil], the Tumor inhibition rate is 11%.
